According to patent US10746637B2, “Aldehyde scavenging agent for retrieving elements from fixed tissue” (University of Houston System, priority 2013, dated 2020):
“Also recorded” adds a separate entry of the source.

How the values were obtained:
[1] = test system: Collagen IV; experiment: Immunohistochemical staining of Collagen IV on formalin fixed paraffin embedded mouse brain sections after antigen retrieval with formaldehyde scavengers and enhancer; design: key: − being non-reactive; Immunoreactivity was scored on a scale of − to +++; Immunoreactivity was scored on a scale of − to +++; +++ being highly reactive; conditions: Table 8; 0.05% maleic acid alone or with aniline, concentrations in label; 45 minutes at 95° C.
Experimental: 12-month-old C57Bl6J mice were housed under controlled environment conditions on a condition al 12 hour light dark cycle. Following sacrifice, brains were post-fixed in 4% paraformaldehyde for 72 hours at […] and then transferred to 70% ethanol solution where they were stored at 4° C. Tissue was paraffin-processed using convention dehydration and embedding, and then sectioned at 5 μm intervals.
Tissues were deparaffinized and rehydrated. Slides were placed in a plastic Coplin jar containing either distilled water or a combination of formaldehyde scavengers in combination with an enhancer. Jars were covered with a loose fitting screw cap and heated in a pressure cooker for 45 minutes at 95° C. After heating, the Coplin jars were removed and allowed to cool and rinsed in TBST for five minutes.
Immunohistochemical staining was performed using a three-step immunostaining technique using the ABC method. Briefly, all incubations were performed as follows: 1) primary antibodies were incubated overnight at 4° C., 2) secondary antibodies were incubated for 10 minutes at room temperature, 3) streptavidin-conjugated enzyme was incubated for 10 minutes at room temperature, 4) peroxidase substrate was incubated for 1 minute.

[2] = test system: blood vessels; experiment: Antigen retrieval in paraformaldehyde fixed vascular tissue, visualization of blood vessels; conditions: paraformaldehyde fixed tissue heated in solution of compound (FIGS. 4A-4E)
Excerpt: Paraformaldehyde fixed tissue samples are heated in solutions of compounds prepared as described in Example 1 and the blood vessels in the tissue are visualized.

[3] = test system: GAPDH; experiment: Dot blot of GAPDH in formaldehyde treated tissues; conditions: maleic acid 1.6% to 12.8%, 95° C. for 30 minutes (FIG. 6B)
[4] = test system: Angiotensin I; experiment: Mass spectrometry of formalin treated Angiotensin I after heating with aldehyde scavenging compounds; conditions: 5% compound, 95° C., 45 minutes
Experimental: Angiotensin I is treated with formalin at room temperature for 48 hours. […] Mass-spectrometry is used to analyze the compositions of the Angiotensin I before and after treatment by each compound. Samples of Angiotensin I before (FIG. 11A) and after (FIG. 11B) formalin treatments are used as the controls for the experiment. Peaks at m/z 1296 represent unmodified Angiotensin I. Peaks at m/z 1308 represent Angiotensin I with 1 methylene unit. Peaks at m/z 1320 represent Angiotensin I with 2 methylene units. Peaks at m/z 1338 represent Angiotensin I with 1 methylene unit and 1 hydroxymethylene group. Peaks at m/z 1350 represent Angiotensin I with 2 methylene units and 1 hydroxymethylene group.

[5] = test system: ACTH (18-39) peptide; experiment: Mass spectrometry of formalin treated ACTH (18-39) peptide after heating with formaldehyde scavenging agents; conditions: 5% compound, 98° C. for 45 minutes as printed with the result (method says 90° C.)
Experimental: ACTH (18-39) peptide is treated with formalin at room temperature for 48 hours (FIG. 12A). […] The composition of the formalin treated ACTH after each treatment is analyzed using mass spectrometry. The results shown in FIGS. 12A-12D are used to investigate the ability of the agents to reverse formaldehyde adducts. […] Only a small amount of ACTH with 3 methylene units is detected.

[6] = test system: Collagen IV; experiment: Antigen retrieval in adult human brain vasculature, Collagen IV staining; conditions: paraformaldehyde fixed paraffin embedded adult human brain tissue (FIG. 7)
Experimental: Paraformaldehyde fixed paraffin embedded tissue from adult human brain is treated with 2,3-dimethylmaleic acid as an antigen retrieval method as described.

[7] = Autofluorescence of heated paraformaldehyde fixed paraffin embedded brain tissue; conditions: 5% ascorbic acid; 70° C., 30 minutes; 488 nm excitation; versus tissue heated only in water
Excerpt: Images are captured at same exposure and time.

[8] = test system: collagen IV; experiment: Fluorescent enhancement after antigen retrieval with addition of Triton, Collagen IV detection of blood vessels; conditions: 0.5% Triton X-100 added to 5.0% ascorbic acid solution; 70° C., 30 minutes; 488 nm excitation; versus without Triton X-100
Excerpt: Images are captured using 488 nm excitation.

## O=C(O)/C=C\C(=O)O [0.05% Maleic acid, Maleic acid]
[1]
  Result (immunoreactivity, Collagen IV staining): +
[2]
  antigen retrieval with visualization of the blood vessels: successful antigen retrieval
[3]
  detection of GAPDH (dot blot): parallel increase in the detection of GAPDH
[4]
  amount of Angiotensin I with 2 methylene units (m/z 1320): significantly reduce
  content of unmodified Angiotensin I (m/z 1296): higher content of unmodified Angiotensin I
[5]
  conversion of modified ACTH (1, 2 or 3 methylene groups) into unmodified ACTH (m/z 2465): convert almost all the modified ACTH

## C/C(C(=O)O)=C(\C)C(=O)O [2,3-dimethylmaleic acid]
[6]
  detection of blood vessels using Collagen IV: Blood vessels were detected

## O=C1O[C@H]([C@@H](O)CO)C(O)=C1O [ascorbic acid]
[7]
  tissue autofluorescence: dramatically reduces visible autofluorescence; also recorded: reduction of autofluorescence
[4]
  retrieval of formalin adducts of Angiotensin I: significant retrieval of formalin adducts
[5]
  conversion of modified ACTH (1, 2 or 3 methylene groups) into unmodified ACTH (m/z 2465): convert almost all the modified ACTH

## Triton X-100
[8]
  staining evenness and fluorescence intensity after antigen retrieval: significant improvement in staining evenness and intensity; also recorded: enhancement of fluorescence
